Experimental data taken from publication PMC10447463, “Data-mining unveils structure–property–activity correlation of viral infectivity enhancing self-assembling peptides” (Nature Communications, 2023).
Read-outs that look alike come from different tables or passages of the source.

Columns and labels:
[1] = tested on: HIV-1 infection of TZM-bl cells; assay: HIV-1 infectivity enhancement assay, β-galactosidase luminescence; type: cell-based
[2] = type: physicochemical
How it was run: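 Fibrils (1 mg/mL solution) were mixed with 50 µM ThT in PBS for 15 min at RT, and fluorescence was read at λex 440/λem 488 nm against a PBS blank, as a triplicate mean ± SD. Zeta potential came from electrophoretic mobility (Smoluchowski) after 1 d aggregation at 1 mg/mL in PBS pH 7.4, diluted into 1 mM KCl.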

[3] = Zeta-potential measurement; type: physicochemical; conditions: for Zeta-pot. / mV: zeta potential of peptide, Fig S15 source data
How it was run: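 Dissolve peptide from DMSO (10 mg/mL stock) into PBS pH 7.4 to 1 mg/mL. Incubate 1 d, RT. Dilute in 1 mM KCl just before reading. Derive zeta potential from mobility (Smoluchowski).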

[4] = Feb2021; figures match the 1.3 µM column
[5] = Feb2021; infectivity relative to virus only
[6] = Feb2021; log10 of infectivity relative to EF-C
[7] = Feb2021; n-fold infectivity relative to EF-C
[8] = infectivity class (low / medium / high) of the peptide in the sequence-pattern analysis, Fig. S22-A4; class limits not given
[9] = log10 of HIV-1 infection of TZM-bl cells relative to EF-C; Fig S15 source data; asymmetric std dev errors
[10] = ThT fluorescence relative to blank, blank = 42.1851851851852
[11] = Feb2021 run; infectivity n-fold relative to virus alone
[12] = Feb2021 run; log10 of infectivity relative to EF-C
[13] = Feb2021 run; n-fold infectivity relative to EF-C
[14] = relative to blank 42.1851851851852 a.u.
[15] = infectivity class (low / medium / high) of each library peptide; main list in c1-c6, same classes repeated in sub-lists of sequences containing the hydrophobicity/charge patterns P+,H0,P+,H0,P0,H0,P0; P+,H0,P0,H0,P0,H0,P0; P+,H0,P0,H0
[16] = infectivity enhancement relative to EF-C (=1); Feb2021 run
[17] = infectivity n-fold relative to virus only; Feb2021 run
[18] = log10 of infectivity relative to EF-C; Feb2021 run
[19] = ThT fluorescence relative to blank (42.1851851851852 a.u.)

Substance | infectivity [1, 8] | Log10 Inf. rel. to EF-C [1, 9] | Tht category (> 1.5 to blank = +) ([2]; category 1/0) | Zeta category ( +1 = if > 4 mV;-1 = if < -4 mV; 0 = -4mV to 4 mV) [3] | Zeta-pot. / mV [3] [mV] | n-fold to virus (Feb2021) [1, 11] | Log10 of Rel to EFC (Feb2021) [1, 12] | Rel-to EFC (Feb-2021) [1, 13] | Tht rel to blank (42.1851851851852) [2, 14] | Zeta Pot. / mV ([3]; mean, Std in separate column) [mV] | infectivity [1, 15] | Tht category (> 1.5 to blank = +) ([2]; FigS26) | Zeta category ( +1 = if > 4 mV;-1 = if < -4 mV; 0 = -4mV to 4 mV) ([3]; FigS26) | other results
KFKQFFINMWQ [VH14] | high | -0.03603 | 0 (ThT-inactive (N-Fold <2)) | 1 (+1 = if > 4 mV) | 7.99 | – | – | – | – | – | – | – | – | Absolute Infectivity / RLU /s (Feb2021) [1, 4]: 14953.33333 RLU /s; n-fold to virus (Feb2021) [1, 5]: 38.67; Log10 of Rel to EFC (Feb2021) [1, 6]: -0.03603; Rel-to EFC (Feb-2021) [1, 7]: 0.9204; Tht rel to blank (42.1851851851852) [2, 10]: 1.085; Zeta Pot. / mV [3]: 7.99 mV
KFQFNMW | – | – | – | – | – | – | – | – | – | – | – | – | – | Log10 Infection Rel EF-C ([1]; log10 of infection relative to EF-C, Figure 6C): -0.7437; Inf. rel. EF-C ([1]; n-fold infection vs virus only, relative to that of EF-C, 1.3 µM peptide): 0.18; ThT Cat. / ThT-Fluorescence (categorical) ([2]; ThT-active if fluorescence at least twice the control): 0 (ThT-inactive (N-Fold <2)); Zeta-Potential / mV ([3]; mean, Figure 6C): 8.763 mV
KIKIKIKI [TM13] | low | -1.487 | 1 (ThT. Cat is 1, if Rel. ThT >2) | 1 (+1 = if > 4 mV) | 5.46 | 1.369 | -1.487 | 0.03258 | 3.325 | 5.46 | – | – | – | –
KIKIKIKIWW [TM21] | – | -0.4266 | 1 (ThT. Cat is 1, if Rel. ThT >2) | 1 (+1 = if > 4 mV) | 15.4 | 15.73 | -0.4266 | 0.3744 | 3.538 | 15.4 | medium | – | – | –
KIKIKIKIWWWW [TM12] | – | -0.2301 | 1 (ThT. Cat is 1, if Rel. ThT >2) | 1 (+1 = if > 4 mV) | 15.2 | 24.74 | -0.2301 | 0.5888 | 2.303 | 15.2 | medium | – | – | –
KIKIQIAMWQ [JR4] | – | -0.4109 | – | – | 11.3 | – | – | – | – | – | medium | 1 (Tht category (> 1.5 to blank = +)) | 1 (+1 = if > 4 mV) | –
KIKIQII [TG1 / (KM4)] | low | -1.729 | 0 (ThT-inactive (N-Fold <2)) | 1 (+1 = if > 4 mV) | 5.61 | 0.7843 | -1.729 | 0.01867 | 1.392 | 5.61 | low | – | – | Absolute Infectivity / RLU /s (Feb2021) [1, 4]: 400 RLU /s; n-fold to virus (Feb2021) [1, 5]: 0.7843; Log10 of Rel to EFC (Feb2021) [1, 6]: -1.729; Rel-to EFC (Feb-2021) [1, 7]: 0.01867; Rel-to EFC (Feb-2021) [1, 16]: 0.01867; n-fold to virus (Feb2021) [1, 17]: 0.7843; Log10 of Rel to EFC (Feb2021) [1, 18]: -1.729; Tht rel to blank (42.1851851851852) [2, 19]: 1.392; Tht rel to blank (42.1851851851852) [2, 10]: 1.392; Zeta Pot. / mV [3]: 5.61 mV
KIKIQIII [TG7] | – | -0.4521 | 1 (ThT. Cat is 1, if Rel. ThT >2) | 1 (+1 = if > 4 mV) | 19.8 | 14.84 | -0.452 | 0.3531 | 2.287 | 19.8 | medium | – | – | Absolute Infectivity / RLU /s (Feb2021) [1, 4]: 8260 RLU /s; n-fold to virus (Feb2021) [1, 5]: 14.84; Log10 of Rel to EFC (Feb2021) [1, 6]: -0.452; Rel-to EFC (Feb-2021) [1, 7]: 0.3531; Rel-to EFC (Feb-2021) [1, 16]: 0.3531; n-fold to virus (Feb2021) [1, 17]: 14.84; Log10 of Rel to EFC (Feb2021) [1, 18]: -0.452; Tht rel to blank (42.1851851851852) [2, 19]: 2.287; Tht rel to blank (42.1851851851852) [2, 10]: 2.287; Zeta Pot. / mV [3]: 19.8 mV
KIKIQIMQWN [VH16] | high | -0.1454 | – | – | 9.44 | – | – | – | – | – | – | 0 (Tht category (> 1.5 to blank = +)) | 1 (+1 = if > 4 mV) | –
KIKIQIMWNQ [VH15] | – | -0.2495 | – | – | 2.96 | – | – | – | – | – | medium | 0 (Tht category (> 1.5 to blank = +)) | 0 (0 = -4mV to 4 mV) | –
KIKIQIN [JGB3] | – | -0.5766 | 0 (ThT-inactive (N-Fold <2)) | 0 (0 = -4mV to 4 mV) | 3.34 | 11.14 | -0.5766 | 0.2651 | 1.784 | 3.34 | medium | – | – | Rel-to EFC ([1]; Fig S8 panels B, D; infectivity enhancement relative to EF-C): 0.2651; n-fold to virus ([1]; Fig S8 panels B, D; infectivity n-fold relative to virus alone): 11.14
KIKIQINAWQ [JR3-II] | – | -0.2703 | – | – | 13.1 | – | – | – | – | – | medium | 1 (Tht category (> 1.5 to blank = +)) | 1 (+1 = if > 4 mV) | –
KIKIQINMAQ [JR2] | – | -0.6722 | – | – | 3.07 | – | – | – | – | – | medium | 0 (Tht category (> 1.5 to blank = +)) | 0 (0 = -4mV to 4 mV) | –
KIKIQINMWA [JR1] | – | -0.1642 | – | – | 14.7 | – | – | – | – | – | medium | 0 (Tht category (> 1.5 to blank = +)) | 1 (+1 = if > 4 mV) | –
KIKIQINMWQRGD [VH17-II] | low | -1.917 | 0 (ThT-inactive (N-Fold <2)) | 0 (0 = -4mV to 4 mV) | 1.69 | 0.5086 | -1.917 | 0.0121 | 1.548 | 1.69 | low | 0 (Tht category (> 1.5 to blank = +)) | – | –
